Test results taken from patent US20030171382A1, “Pharmaceutical composition for regeneration of cirrhotic liver” (priority 2002, published 2003).
Read-outs that look alike come from different tables or passages of the source. Marks after values point to notes of the source that are not given here.

Experiments:
rats with cirrhosis [1] = settings: cirrhotic rats, 30 mg/kg, 3 times a week for 4 weeks; without oltipraz 48% after 4 weeks
Description: (§1) Sprague-Dawley rats that were 6 weeks old and 140-160 g were used in the examples below.
(§2) By continually administering rats with dimethylnitrosamine (DMN) 3 times a week for 4 weeks, test models of cirrhotic livers were achieved. At such time, the rats showing only indications of liver fibrosis were placed in a separate group from rats showing indications of cirrhosis, and the survival rates of rats with cirrhosis and rats with liver fibrosis were studied during the next 4 weeks.

rats with liver fibrosis [2] = settings: 30 mg/kg 3 times a week
Description: as §1, §2

rats with cirrhosis [3] = settings: 3 times a week for 4 weeks; for Fibrosis Scores / Knodell Scores: group with cirrhosis; for Fibrosis Scores: scale 0-4, untreated 3.8 ± 0.2; for Knodell Scores: untreated 14.0 ± 0.8
Description: as §1, §2
The histopathological effect of oltipraz on cirrhosis was studied.
(§3) The curative effect of oltipraz on liver cirrhosis was histopathologically determined through fibrosis scores taken after Masson's trichrome staining and through Knodell scores which show the portal inflammation and the extent of fibrosis of the liver (FIG. 2, Table 1).
(§4) Each value is represented by the average ± standard deviation. The number of animals used was 5 to 10. The significance of each group is determined by the paired Student's t-test. The significance is indicated by * p<0.05, ** p<0.01 compared to rats with cirrhosis or liver fibrosis. […] Degree of fibrosis 0=Normal, 1=Presence of weak fibrous tissue, 2=Presence of moderate fibrous tissue, 3=Presence of obvious fibrous tissue, 4=Evidence of severe fibrosis. Sum of values from periportal bridging (Greatest=10), intralobular cell loss (Greatest=4), portal inflammation (Greatest=4), and fibrosis (Greatest=4) yields the Knodell score.

rats with liver fibrosis [4] = settings: group with fibrosis; for Fibrosis Scores: scale 0-4, untreated 2.2 ± 0.5; for Knodell Scores: untreated 6.0 ± 1.2
Description: as §1, §2, §3, §4

rats with cirrhosis [5] = settings: for ALT in blood plasma / AST in blood plasma / Bilirubin in blood plasma / Cholesterol in blood plasma: group with cirrhosis; for ALT in blood plasma: untreated 138 ± 14, control 55 ± 4; for AST in blood plasma: untreated 275 ± 36, control 141 ± 18; for Bilirubin in blood plasma: untreated 2.7 ± 0.8, control 1.1 ± 0.1; for Cholesterol in blood plasma: untreated 152 ± 30, control 97 ± 6
Experimental: as §1
When the rats were administered with 15 mg/kg of oltipraz, 3 times a week for 4 weeks, the ALT and AST activity in the blood plasma was reduced, and when administered with 30 mg/kg, approximately 70% of the AST value lowered, showing a statistical significance (Table 2).
The amount of bilirubin in blood plasma is an indicator of the liver's capacity.
Each value is represented by the average ± standard deviation. The number of animals used was 8 to 11. The significance of each group is determined by the paired Student's t-test. The significance is indicated by * p<0.05, compared to control and # p<0.05 compared to rats with cirrhosis.

cirrhotic rats [6] = settings: index 0-3, untreated 1.7
Description: as §1
Another representative clinical symptom of cirrhosis is the accumulation of ascites. […] The significance is indicated by ** p<0.01, compared to control and # p<0.05 compared to rats with cirrhosis.

cirrhotic rats [7] = settings: 30 mg/kg, 3 times a week for 4 weeks
Description: as §1
Ascites are formed when the synthesis of the blood plasma protein (especially albumin) is reduced in the liver tissues, bringing a disturbance in maintaining the equilibrium of the osmotic pressure in the blood. […] The significance is indicated by ** p<0.01, compared to control and # p<0.05 compared to rats with cirrhosis.

cirrhotic rats [8] = settings: 3 times a week for 4 weeks, untreated approximately 56% of normal
Description: as §1
Cirrhosis is not only responsible for diminishing of a liver's function, but also for atrophy of the liver tissues. […] Since weight loss accompanies cirrhosis, in order to standardize the test results, the weight of the brain, which is normally not affected by cirrhosis, was used as the comparative weight to obtain the changes in the weights. The significance is indicated by ** p<0.01, compared to control and # p<0.05 compared to rats with cirrhosis.

cirrhotic rats [9] = settings: 30 mg/kg, 3 times a week for 4 weeks; remark: listed apart in the source
Description: as §1
The left side of FIG. 4b is a photograph of liver tissue, obtained after administration of oltipraz to cirrhotic rats, taken following Masson's trichrome staining.

Thy1.1 and Flt-3 = settings: cirrhotic rats, 30 mg/kg, 3 times a week for 4 weeks; compared to untreated cirrhotic rats
Description: The cells, which regenerate to liver tissues, are known to originate from stem cells.

c-Met = settings: cirrhotic rats, 30 mg/kg, 3 times a week for 4 weeks; versus un-administered rats
Description: c-Met is a Hepatocyte Growth Factor (HGF) receptor, applicable in proliferation and differentiation of the liver cells. […] When c-Met is not appropriately present, even with the presence of HGF, liver tissues will not form.

C/EBP-β and C/EBP-α [10] = settings: cirrhotic rats, 30 mg/kg, 3 times a week for 4 weeks
Experimental: With the importance of C/EBP in the regulation of liver regeneration in mind, the expression of C/EBP-β and C/EBP-α in oltipraz administered (30 mg/kg, 3 times a week for 4 weeks) cirrhotic rats were examined.

C/EBP-β = settings: rat hepatocytes, 30 μM for 6 hours
Experimental: Afterwards, to study whether oltipraz promotes translocation of C/EBP-β to the nucleus, rat hepatocytes were incubated with oltipraz at the concentration of 30 μM for 6 hours.

PCNA [11] = settings: cirrhotic rats, 30 mg/kg, 3 times a week for 4 weeks; compared to cirrhotic rat without oltipraz
Experimental: PCNA immunochemical analysis is done with a specific antibody for PCNA (Santa Cruz Biotech). Analysis was carried out by indirect Avidin-Biotin-Alkaline-Phosphatase technique, according to the protocol provided by the manufacturer (InnoGenex). […] By using blocking serum, nonspecific antibody bindings were prevented. Then, in a humidified chamber, the slices were incubated with antibodies for 30 minutes at room temperature. After the incubation, Phosphate Buffered Saline (PBS) with 0.1% Tween-20 was used to rinse the slides. The slices were subjected to biotinylated 2nd antibodies and reacted for 5 minutes at 37° C. followed by additional reaction for 5 minutes at 37° C. with streptavidin-conjugated alkaline phosphatase added. Then, 5-bromo-4-chloro-3-indolyl-phosphate (BCIP) and nitro-blue-tetrazolium (NBT) were used as the phosphatase substrate to be incubated with the slices on the slide until proper colors became visible. Afterwards, the slices were again stained with nuclear fast red.

PCNA [12] = settings: cirrhotic rats, 30 mg/kg, 3 times a week for 4 weeks; versus control or untreated cirrhotic rats
Experimental: Nuclear fractions of the liver from the control rats, cirrhotic rats and oltipraz administered (30 mg/kg, 3 times a week for 4 weeks) cirrhotic rats were dissolved in a diluting solution containing sodium dodecyl sulfate (SDS) to form a sample and stored at −70° C. After SDS-polyacrylamide gel electrophoresis, immunoblot analysis was carried out. The sample was fractionated by using 12% gel electrophoresis and electrically transferred to nitrocellulose membrane. The nitrocellulose membrane was incubated with polyclonal mouse anti-PCNA antibody (1:1000) (Santa Cruz Biotech) and then incubated again with horseradish peroxidase-conjugated secondary antibody. Lastly, ECL chemiluminescence kit manufactured by Amersham company was used to develop the band.

C/EBP-β and C/EBP-α [13] = settings: primary cultured hepatocytes, 30 μM
C/EBP = settings: hepatocytes isolated from cirrhotic rats incubated with oltipraz
[14] = 15 mg/kg, 3 times a week for 4 weeks, 15 mg/kg
[15] = 15 mg/kg, 3 times a week for 4 weeks, listed as oltipraz, 15 mg/kg

Cc1c(-c2cnccn2)ssc1=S [Oltipraz, 5-(2-pyrazinyl)-4-methyl-1,2-dithiol-3-thione]
survival rate (rats with cirrhosis [1]): 83% | death of rats (rats with liver fibrosis [2]): no death | accumulation of fibers in liver tissue (rats with cirrhosis [3]; cirrhotic rats, 15 or 30 mg/kg): reduced in a dose-dependent manner | Fibrosis Scores (rats with cirrhosis [3]; 15 mg/kg): 2.9 ± 0.4 | Knodell Scores (rats with cirrhosis [3]; 15 mg/kg): 8.7 ± 1.1** | Fibrosis Scores (rats with cirrhosis [3]; 30 mg/kg): 2.8 ± 1.1* | Knodell Scores (rats with cirrhosis [3]; 30 mg/kg): 6.8 ± 2.5** | Fibrosis Scores (rats with liver fibrosis [4]; 15 mg/kg): 2.8 ± 0.4 | Knodell Scores (rats with liver fibrosis [4]; 15 mg/kg): 7.0 ± 1.2 | Fibrosis Scores (rats with liver fibrosis [4]; 30 mg/kg): 1.0 ± 0.0** | Knodell Scores (rats with liver fibrosis [4]; 30 mg/kg): 2.6 ± 0.4* | total cholesterol level in blood plasma (rats with cirrhosis [5]; cirrhotic rats treated with oltipraz (dose not given)): did not show noticeable change | AST value lowered (rats with cirrhosis [5]; cirrhotic rats, 30 mg/kg): approximately 70% | amount of bilirubin in blood plasma (rats with cirrhosis [5]; cirrhotic rats, oltipraz administration (dose not given)): tended to be reduced | ALT in blood plasma (rats with cirrhosis [5]; [14]): 124 ± 47 | ALT in blood plasma (rats with cirrhosis [5]; [15]): reduced | AST in blood plasma (rats with cirrhosis [5]; [14]): 206 ± 24 | AST in blood plasma (rats with cirrhosis [5]; [15]): reduced | Bilirubin in blood plasma (rats with cirrhosis [5]; 15 mg/kg): 1.8 ± 0.4 | Cholesterol in blood plasma (rats with cirrhosis [5]; 15 mg/kg): 116 ± 9 | Bilirubin in blood plasma (rats with cirrhosis [5]; 30 mg/kg): 1.4 ± 0.2 | ALT in blood plasma (rats with cirrhosis [5]; 30 mg/kg): 110 ± 39 | Cholesterol in blood plasma (rats with cirrhosis [5]; 30 mg/kg): 104 ± 7 | AST in blood plasma (rats with cirrhosis [5]; 30 mg/kg): 185 ± 22^# | ascites formation index (cirrhotic rats [6]; 15 mg/kg): 0.9 | ascites formation index (cirrhotic rats [6]; 30 mg/kg): 0.4 | amount of albumin in the blood plasma (cirrhotic rats [7]): normal albumin content was recovered | liver weights (cirrhotic rats [8]; 15 mg/kg): recovered almost to the normal weights | liver weights (cirrhotic rats [8]; 30 mg/kg): recovered almost to the normal weights | division of the liver cells (cirrhotic rats [9]): clearly shows the dividing cells | number of cells containing Thy1.1 and Flt-3 (Thy1.1 and Flt-3): considerable decline | expression of c-Met (c-Met): noticeably greater | appearance of liver-enriched inhibitory protein (LIP) (C/EBP-β and C/EBP-α [10]): almost completely disappeared | expression of C/EBP-α (C/EBP-β and C/EBP-α [10]): noticeably recovered | expression of C/EBP-β (C/EBP-β and C/EBP-α [10]): increased | translocation of C/EBP-β to the nucleus (C/EBP-β): clearly promoted translocation | occurrence of PCNA (cells with PCNA) (PCNA [11]): approximately twice more frequent | expression of PCNA (36 kDa band intensity) (PCNA [12]): significant increase in the expression of PCNA | amount of C/EBP-α in the nucleus of the liver cells (C/EBP-β and C/EBP-α [13]): gradually increased | amount of C/EBP-β in the nucleus of the liver cells (C/EBP-β and C/EBP-α [13]): gradually increased | amount of C/EBP in the nucleus (C/EBP): no significant change was observed
